These results are taken from patent US4888287A, “Rapid differentiation of fungi from bacteria using polyene antibiotics” (Eastman Kodak Company, priority 1986, dated 1989).

The subject of assay [1] is C. albicans. Nature of the assay: Inhibition of MTT tetrazolium salt reduction by C. albicans, microtitration plate (Example 3, Table IV). The assay is classed as cell-based, Candida albicans (ATCC 14053). The following applies: Candida albicans, 0.5 h, C. albicans (yeast), 540 nm, 37° C., 30 min, read-out: Corrected Percent Inhibition. As for the experimental part: (§1) gram-negative microorganism Escherichia coli (ATCC 25922), gram-positive microorganism Staphylococcus aureus (ATCC 25923), and Candida albicans yeast cells (ATCC 14053), brain heart infusion broth (BHI) and Sabaroud's dextrose broth (SAB) from Difco Laboratories (Detroit, Michigan, U.S.A.), and Aspergillus flavus (ATCC 20047), a mold from American Type Culture Collection (Rockville, Maryland, U.S.A.).
(§2) E. coli and S. aureus were grown overnight in BHI broth at 37° C. C. albicans and A. flavus were grown overnight at 25° C. in SAB broth with agitation. The cells were harvested by centrifugation, washed and resuspended in 0.05 molar N-2-hydroxyethylpiperazine-N'-2-ethanesulfonic acid (HEPES) buffer (pH 7.8).
(§3) The differentiations of yeast and mold from bacteria were carried out in microtitration plates. The cell suspensions used were like those described in Example 2. The reducible compound used was 3-(4,5-dimethyl-2-thiazolyl)-2,5-diphenyl-2H-tetrazolium bromide (MTT). A composition containing MTT was prepared with the following components: 200 μl MTT solution (5 mg/ml methanol), 200 μl glucose solution (10% glucose in water), 200 μl trimethyl-1,4-benzoquinone ETA and 12 ml of HEPES buffer (0.05 molar, pH 7.8).
(§4) Test solutions were prepared using the following components: 50 μl HEPES buffer, 50 μl filipin polyene antibiotic (12.5 mg/ml dimethylsulfoxide)(serial dilutions of buffer and antibiotic solutions were performed to obtain various antibiotic concentrations), 50 μl of the appropriate cell suspension, i.e. E. coli (about 10^8 cells/ml), S. aureus (about 10^8 cells/ml), C. albicans (about 10^7 cells/ml) and A. flavus, and […] of the MTT composition noted above. Cell Controls contained all reagents except the antibiotic. Background was measured with buffer. Solution Controls contained all reagents except cells.
(§5) Optical density measurements were made at 540 nm using a commercially available spectrophotometer, and the change in optical density (ΔOD) was determined after 30 minutes at 37° C. […] It is apparent that the concentration effective for differentiation of yeast is different than for mold. However, it is well within the skill of a worker in the art to determine the appropriate concentration for a given test.
For orientation: Tetrazolium assays rely on reduction of a dye to a coloured formazan, in cell work by metabolically active cells.

The test system of assay [2] is S. aureus. The assay can be described thus: Inhibition of MTT tetrazolium salt reduction by S. aureus, microtitration plate (Example 3, Table IV). It counts as cell-based, Staphylococcus aureus (ATCC 25923). The conditions noted are these: Staphylococcus aureus, 0.5 h, S. aureus (gram +), 540 nm, 37° C., 30 min, read-out: Corrected Percent Inhibition. On the procedure: as §1, §2, §3, §4, §5

The subject of assay [3] is S. aureus. Nature of the assay: Inhibition of RIND XXXV reduction by S. aureus, microtitration plate, fluorescence (Example 2, Table III). The assay is classed as cell-based, Staphylococcus aureus (ATCC 25923). The following applies: Staphylococcus aureus, 0.5 h, S. aureus (gram +), 37° C., 30 min, read-out: Corrected Percent Inhibition. As for the experimental part: as §1, §2
Dispersions containing RIND compounds were prepared by dissolving, for example, RIND VII from Table I above in N,N-dimethylformamide (DMF) at 16 mg compound per ml of solvent. An aliquot (250 μl) of the resulting solution was added to 500 μl of TRITON X-100 surfactant. This mixture was then added dropwise with stirring to 25 ml of 0.05 molar HEPES buffer. A solution containing a water-compatible RIND compound (for example, RIND XXXV) was prepared by dissolving the compound in N,N-dimethylformamide which had been acidified with 0.1% sulfuric acid (16 mg RIND compound per ml of solvent).
A composition was prepared from the following components: 100 μl RIND XXXV solution (16 mg RIND compound per ml of acidified N,N-dimethylformamide), 200 μl glucose solution (10% in water), 200 μl trimethyl-1,4-benzoquinone ETA solution (1.5 mg/ml methanol) and 10 ml HEPES buffer.
Test solutions were prepared using the following reagents: 50 μl HEPES buffer, 50 μl filipin polyene antibiotic (12.5 mg/ml dimethylsulfoxide)(serial dilutions of buffer and antibiotic solutions were performed to obtain various antibiotic concentrations), 50 μl of the appropriate cell suspensions, that is, E. coli (about 10^8 cells/ml), S. aureus (about 10^8 cells/ml), C. albicans (about 10^7 cells/ml) and A. flavus, and […] of the RIND composition described above.
Control solutions were prepared as described in Example 1. Relative fluorescence was measured using a Dynatech MICROFLUOR Reader (Dynatech Laboratories, Alexandria, Virginia) modified to read at excitation 540 nm and emission 620 nm, at zero time and after incubation at 37° C. for 30 minutes. The change in relative fluorescence was then determined as the difference of the two values.

Assay [4] deals with C. albicans. The assay can be described thus: Inhibition of RIND IX reduction by C. albicans (yeast) in solution (Example 1, Table II). It counts as cell-based, Candida albicans (ATCC 14053). The following applies: Method 2 (antibiotic preincubated with cells 37° C., 30 min), 635 nm.
Experimental: The following materials were used in this example: stock solutions of RIND IX compound dispersion prepared as described above, glucose (10% in water), trimethyl-1,4-benzoquinone ETA (1.5 mg/ml methanol), and the antibiotics (25 mg/ml in dimethyl sulfoxide, except that filipin was 12.5 mg/ml of solvent). Bacteria and yeast were grown as described above. The approximate final cell concentrations in the assay mixture were 4.2×10^8 cells/ml of E. coli, 7.1×10^8 cells/ml of S. aureus, and 7×10^5 of C. albicans.
Test solutions were prepared by adding in order: 1.2 ml of HEPES buffer, 50 μl glucose solution, 1.5 ml of RIND IX dispersion, 100 μl of antibiotic solution, 100 μl of cell suspension and 25 μl of ETA solution. Cell control solutions contained all reagents except antibiotics. Background controls consisted of both buffer and solution controls. The buffer control contained all reagents except antibiotics and cells. The solution control contained all reagents except cells. Optical density readings (OD) were measured at 635 nm at 0 minutes and after incubation at 37° C. for 30 minutes for test and Control solutions, and the change in density (ΔOD) was determined. […] The corrected percent inhibition is calculated by dividing the difference between the ΔOD obtained from the Control without antibiotic and the ΔOD of the test solution, by ΔOD of the Control without antibiotic. All readings were corrected by subtracting readings of the appropriate background control.
Solutions containing 2.9 ml HEPES, 50 μl of the antibiotic solution, and 100 μl cell solution were incubated at 37° C. for 30 minutes, centrifuged for 10 minutes and decanted. The resulting pellet was then treated with 1.4 ml HEPES, 50 μl glucose solution, 1.5 ml RIND IX dispersion and 25 μl ETA solution, mixed well and the optical densities recorded as described above in Method 1. The corrected percent inhibition data was calculated as described in Method 1 above.
For another assay, the system named is E. coli. Nature of the assay: Inhibition of MTT tetrazolium salt reduction by E. coli, microtitration plate (Example 3, Table IV). The assay is classed as cell-based, Escherichia coli (ATCC 25922). The following applies: Escherichia coli, 0.5 h, E. coli (gram -), 540 nm, 37° C., 30 min, read-out: Corrected Percent Inhibition. As for the experimental part:
as §1, §2, §3, §4, §5

For orientation: inhibition means the share of the control response that was lost under treatment. As for `CCCCC[C@@H](O)[C@H]1C(=O)O[C@H](C)[C@@H](O)/C=C/C=C/C=C/C=C/C=C(\C)[C@@H](O)C[C@H](O)C[C@H](O)C[C@H](O)C[C@H](O)C[C@H](O)C[C@@H]1O` [Filipin, filipin], the inhibition at 260 µg/mL in the assay with C. albicans [1] (0.26 mg/ml) stood at 10.3%; with S. aureus [2] (0.26 mg/ml) it was 0%; with S. aureus [3] (0.26 mg/ml), 7.5%; in the assay on E. coli (0.26 mg/ml) it was 0%. Moreover, the inhibition at 520 µg/mL came to 50% with C. albicans [1] (0.52 mg/ml), 0% with S. aureus [2] (0.52 mg/ml), 8.6% in the assay on S. aureus [3] (0.52 mg/ml) and 0% with E. coli (0.52 mg/ml). Further, the inhibition at 1040 µg/mL in the assay with C. albicans [1] (1.04 mg/ml) was 60.3%; with S. aureus [2] (1.04 mg/ml) it was 0%; with S. aureus [3] (1.04 mg/ml) it was 14.8%; with E. coli (1.04 mg/ml), 0%. Moreover, the inhibition at 2080 µg/mL in the assay on C. albicans [1] (2.08 mg/ml) worked out at 100%; in the assay on S. aureus [2] (2.08 mg/ml), 0%; in the assay on S. aureus [3] (2.08 mg/ml), 18.2%; in the assay with E. coli (2.08 mg/ml) it was 0%. In the assay with C. albicans [4], the “Corrected % Inhibition” value was 97.5%.
